“And” between values parts separate entries of the source, which are not always exact repeats. Equal values may be shown once. Records with an inconclusive call do not appear.
Tested on: MX-1 breast xenograft, intrarenal, nude mice, tumor weight
Experiment: NCI In Vivo Anticancer Drug Screen. Data for tumor model Human Mammary Carcinoma MX-1 Xenograft (intrarenal inoculation) in NU/NU BALB/C (nude) mice
Conditions: endpoint: mean tumor weight change, higher = larger tumour
How it was run: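 Efficacy in vivo: tumor measurement or survival of treated animals divided by that of vehicle-dosed controls.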

[1] = dose: 300.0 mg/kg/injection, schedule: Q04DX003 (sc), vehicle: saline with Tween-80
[2] = dose: 600.0 mg/kg/injection, schedule: Q04DX003 (sc), vehicle: saline with Tween-80
[3] = dose: 1200.0 mg/kg/injection, schedule: Q04DX003 (sc), vehicle: saline with Tween-80
[4] = dose: 300.0 mg/kg/injection, schedule: Q04DX003 (ip), vehicle: saline with Tween-80
[5] = dose: 150.0 mg/kg/injection, schedule: Q04DX003 (ip), vehicle: saline with Tween-80

Q: What does the source list for O=NNc1ccc2cccnc2n1?
A: T/C (dose: 37.5 mg/kg/injection, schedule: Q04DX003 (ip), vehicle: other): 6 % of control; T/C (dose: 37.5 mg/kg/injection, schedule: Q04DX003 (ip), vehicle: water): 63 % of control; T/C (dose: 75.0 mg/kg/injection, schedule: Q04DX003 (ip), vehicle: other): -45 % of control; T/C (dose: 75.0 mg/kg/injection, schedule: Q04DX003 (ip), vehicle: water): 17 % of control; T/C (dose: 150.0 mg/kg/injection, schedule: Q04DX003 (ip), vehicle: water): 9 % of control

Q: COC(=O)CC(N)C(=O)O (stereo unspecified) was tested. Which T/C [1] did it give?
A: 78 % of control

Q: And the T/C [2]?
A: 121 % of control

Q: What about the T/C [3] of the same compound?
A: 99 % of control

Q: What about the T/C (dose: 2400.0 mg/kg/injection, schedule: Q04DX003 (sc), vehicle: saline with Tween-80) of the same compound?
A: 101 % of control

Q: For C=COC(=O)C(Cc1ccccc1)NC(=O)OCc1ccccc1 (stereo unspecified), which T/C [1] is on record?
A: 63 % of control

Q: What about the T/C [2] of the same compound?
A: 85 % of control

Q: What about the T/C [3] of the same compound?
A: 112 % of control

Q: Clc1ccccc1C(Nc1cnccn1)Nc1cnccn1 was tested. Which T/C [4] did it give?
A: 70 % of control and 89 % of control

Q: For Oc1ccc(/C=N/N=C/c2ccc(O)c(O)c2)cc1O, which T/C (dose: 75.0 mg/kg/injection, schedule: Q04DX003 (ip), vehicle: saline with Tween-80) is on record?
A: 68 % of control

Q: And the T/C [5]?
A: 46 % of control

Q: And the T/C [4]?
A: 78 % of control

Q: And the T/C (dose: 1200.0 mg/kg/injection, schedule: Q04DX003 (ip), vehicle: saline with Tween-80)?
A: 82 % of control

Q: For O=c1c(O)c(O)c1=O.[NH2-].[NH2-].[NH2-].[NH2-].[NH2-].[Ru+5], which T/C (dose: 12.5 mg/kg/injection, schedule: Q04DX003 (ip), vehicle: suspension in saline) is on record?
A: 98 % of control

Q: What about the T/C (dose: 25.0 mg/kg/injection, schedule: Q04DX003 (ip), vehicle: suspension in saline) of the same compound?
A: 74 % of control

Q: What about the T/C (dose: 50.0 mg/kg/injection, schedule: Q04DX003 (ip), vehicle: suspension in saline) of the same compound?
A: 60 % of control

Q: For Cc1ccc(C(=Nc2ccccc2)N=P(c2ccccc2)(c2ccccc2)c2ccccc2)cc1, which T/C (dose: 50.0 mg/kg/injection, schedule: Q04DX003 (ip), vehicle: saline with Tween-80) is on record?
A: 68 % of control

Q: And the T/C (dose: 100.0 mg/kg/injection, schedule: Q04DX003 (ip), vehicle: saline with Tween-80)?
A: 45 % of control

Q: Which results are given for COc1cc2c(c(OC)c1OC)-c1ccc(OC)c(=O)cc1[C@@H](NC(C)=O)CC2?
A: T/C (dose: 0.5 mg/kg/injection, schedule: Q04DX003 (ip), vehicle: saline): 41 % of control and 48 % of control; T/C (dose: 1.0 mg/kg/injection, schedule: Q04DX003 (ip), vehicle: saline): 17 % of control and 20 % of control

Q: For [Cl][Hg][Cl], which T/C (dose: 5.0 mg/kg/injection, schedule: Q04DX003 (ip), vehicle: saline) is on record?
A: 67 % of control

Q: O=[N+]([O-])O.[Ga] was tested. Which T/C (dose: 200.0 mg/kg/injection, schedule: Q04DX003 (sc), vehicle: saline) did it give?
A: 61 % of control

Q: And the T/C (dose: 400.0 mg/kg/injection, schedule: Q04DX003 (sc), vehicle: saline)?
A: 67 % of control

Q: And the T/C (dose: 800.0 mg/kg/injection, schedule: Q04DX003 (sc), vehicle: saline)?
A: 81 % of control

Q: And the T/C (dose: 1600.0 mg/kg/injection, schedule: Q04DX003 (sc), vehicle: saline)?
A: 74 % of control

Q: Which T/C (dose: 150.0 mg/kg/injection, schedule: Q04DX003 (ip), vehicle: saline) does the source give for O=c1[nH]cnc2c1nnn2C1OC(CO)C(O)C1O (stereo unspecified) here?
A: 18 % of control and 32 % of control

Q: What about the T/C (dose: 150.0 mg/kg/injection, schedule: Q04DX003 (ip), vehicle: suspension in saline) of the same compound?
A: 11 % of control and 24 % of control

Q: What about the T/C (dose: 300.0 mg/kg/injection, schedule: Q04DX003 (ip), vehicle: saline) of the same compound?
A: 17 % of control and 19 % of control

Q: And the T/C (dose: 300.0 mg/kg/injection, schedule: Q04DX003 (ip), vehicle: suspension in saline)?
A: 10 % of control and 20 % of control

Q: And the T/C (dose: 600.0 mg/kg/injection, schedule: Q04DX003 (ip), vehicle: saline)?
A: 8 % of control and 13 % of control

Q: And the T/C (dose: 600.0 mg/kg/injection, schedule: Q04DX003 (ip), vehicle: suspension in saline)?
A: 9 % of control and 13 % of control

Q: What about the T/C (dose: 1200.0 mg/kg/injection, schedule: Q04DX003 (ip), vehicle: saline) of the same compound?
A: 9 % of control and 11 % of control

Q: And the T/C (dose: 1200.0 mg/kg/injection, schedule: Q04DX003 (ip), vehicle: suspension in saline)?
A: 8 % of control and 12 % of control

Q: Which results are given for CC(=O)c1c(O)c(C)c(O)c2c1OC1=CC(=O)C(C(C)=O)C(=O)C12C (stereo unspecified)?
A: T/C (dose: 200.0 mg/kg/injection, schedule: Q01DX010 (sc), vehicle: sodium bicarbonate): 96 % of control; T/C (dose: 400.0 mg/kg/injection, schedule: Q01DX010 (sc), vehicle: sodium bicarbonate): 72 % of control

Q: How did the T/C [5] turn out when CNC(=O)Oc1ccc(S(=O)(=O)c2ccc(OC(=O)NC)cc2)cc1 was run?
A: 98 % of control

Q: And the T/C [4]?
A: 89 % of control

Q: What about the T/C (dose: 600.0 mg/kg/injection, schedule: Q04DX003 (ip), vehicle: saline with Tween-80) of the same compound?
A: 33 % of control

Q: How did the T/C (dose: 750.0 mg/kg/injection, schedule: Q01DX010 (sc), vehicle: saline) turn out when CS(C)=O was run?
A: 122 % of control

Q: What about the T/C (dose: 3000.0 mg/kg/injection, schedule: Q01DX010 (sc), vehicle: saline) of the same compound?
A: 121 % of control

Q: OCCN1CCN(CC/C=C2/c3ccccc3Sc3ccc(C(F)(F)F)cc32)CC1 was tested. Which T/C (dose: 30.0 mg/kg/injection, schedule: Q04DX003 (sc), vehicle: saline) did it give?
A: 65 % of control

Q: And the T/C (dose: 60.0 mg/kg/injection, schedule: Q04DX003 (sc), vehicle: saline)?
A: 43 % of control and 44 % of control

Q: And the T/C (dose: 120.0 mg/kg/injection, schedule: Q04DX003 (sc), vehicle: saline)?
A: 11 % of control and 33 % of control

Q: Clc1ccc(CN2COc3c(ccc4cccnc34)C2)cc1Cl was tested. Which T/C (dose: 100.0 mg/kg/injection, schedule: Q01DX010 (sc), vehicle: saline with Tween-80) did it give?
A: 91 % of control

Q: What about the T/C (dose: 400.0 mg/kg/injection, schedule: Q01DX010 (sc), vehicle: saline with Tween-80) of the same compound?
A: 71 % of control

Q: What about the T/C (dose: 800.0 mg/kg/injection, schedule: Q01DX010 (sc), vehicle: saline with Tween-80) of the same compound?
A: 44 % of control

Q: Which T/C (dose: 10.0 mg/kg/injection, schedule: Q01DX010 (sc), vehicle: saline with Tween-80) does the source give for O=C/C(Cl)=C(/Cl)C(=O)O here?
A: 87 % of control

Q: And the T/C (dose: 20.0 mg/kg/injection, schedule: Q01DX010 (sc), vehicle: saline with Tween-80)?
A: 36 % of control

Q: What about the T/C (dose: 40.0 mg/kg/injection, schedule: Q01DX010 (sc), vehicle: saline with Tween-80) of the same compound?
A: 41 % of control

Q: For CCCCCCCC(=O)O[C@H]1[C@H]2[C@@H](CC1(C)C)C(=O)[C@]13O[C@H]1C(=O)[C@]1(CO1)[C@]23C, which T/C (dose: 5.0 mg/kg/injection, schedule: Q04DX003 (ip), vehicle: saline with Tween-80) is on record?
A: 100 % of control

Q: What about the T/C (dose: 10.0 mg/kg/injection, schedule: Q04DX003 (ip), vehicle: saline with Tween-80) of the same compound?
A: 96 % of control

Q: What about the T/C (dose: 20.0 mg/kg/injection, schedule: Q04DX003 (ip), vehicle: saline with Tween-80) of the same compound?
A: 80 % of control

Q: With COc1cc2cc3c(c(O)c2c(O)c1/C=C/C(C)C)C(=O)CC(C)(OC(C)=O)C3 (stereo unspecified) as the compound, how does the T/C (dose: 5.0 mg/kg/injection, schedule: Q04DX003 (ip), vehicle: Klucel (hydroxypropylcellulose) (HPC)) read?
A: 85 % of control

Q: What about the T/C (dose: 10.0 mg/kg/injection, schedule: Q04DX003 (ip), vehicle: Klucel (hydroxypropylcellulose) (HPC)) of the same compound?
A: 66 % of control

Q: And the T/C (dose: 20.0 mg/kg/injection, schedule: Q04DX003 (ip), vehicle: Klucel (hydroxypropylcellulose) (HPC))?
A: 63 % of control

Q: Which results are given for NCCSC(C[N+](=O)[O-])c1ccccc1Cl (stereo unspecified)?
A: T/C (dose: 25.0 mg/kg/injection, schedule: Q04DX003 (ip), vehicle: saline): 86 % of control; T/C (dose: 50.0 mg/kg/injection, schedule: Q04DX003 (ip), vehicle: saline): 86 % of control; T/C (dose: 100.0 mg/kg/injection, schedule: Q04DX003 (ip), vehicle: saline): 85 % of control

Q: Which results are given for CNC(=O)OCc1nc(SC)n(C)c1COC(=O)NC?
A: T/C (dose: 28.75 mg/kg/injection, schedule: Q04DX003 (ip), vehicle: saline): -91 % of control; T/C (dose: 57.5 mg/kg/injection, schedule: Q04DX003 (ip), vehicle: saline): -85 % of control; T/C (dose: 115.0 mg/kg/injection, schedule: Q04DX003 (ip), vehicle: saline): -63 % of control

Q: How did the T/C (dose: 15.0 mg/kg/injection, schedule: Q04DX003 (ip), vehicle: Klucel (hydroxypropylcellulose) (HPC)) turn out when COc1cc(NCc2ccc3nc(N)nc(N)c3c2C)cc(OC)c1OC was run?
A: 96 % of control and 101 % of control

Q: And the T/C (dose: 30.0 mg/kg/injection, schedule: Q04DX003 (ip), vehicle: Klucel (hydroxypropylcellulose) (HPC))?
A: 81 % of control and 95 % of control

Q: And the T/C (dose: 120.0 mg/kg/injection, schedule: Q04DX003 (ip), vehicle: Klucel (hydroxypropylcellulose) (HPC))?
A: 56 % of control and 71 % of control

Q: How did the T/C (dose: 150.0 mg/kg/injection, schedule: Q04DX003 (ip), vehicle: DMSO) turn out when COc1ccc(-c2cc(C(=O)Nc3cc(C(F)(F)F)cc(C(F)(F)F)c3)c3ccccc3n2)cc1 was run?
A: 103 % of control

Q: What about the T/C (dose: 300.0 mg/kg/injection, schedule: Q04DX003 (ip), vehicle: DMSO) of the same compound?
A: 70 % of control

Q: What about the T/C (dose: 600.0 mg/kg/injection, schedule: Q04DX003 (ip), vehicle: DMSO) of the same compound?
A: 78 % of control
